Source: patent publication US5756501A, “Saturated and unsaturated pyridazino[4,5-B] indolizines useful as antidementia agents” (American Home Products Corporation, priority 1996, dated 1998)
Substitutions are numbered along the chain they refer to.

Tests used:
Human m1 receptors = Human m1 receptors (Homo sapiens, UniProt P11229); assay: biochemical; type: binding
muscarinic M1 receptors [1] = biological target: T1, muscarinic M1 receptors (Rattus norvegicus, UniProt P08482); assay: Tritiated pirenzepine ([^3 H]PZ) binding inhibition, rat brain cortex (M1 binding); conditions: [^3 H]PZ 0.5 nM, read-out: M1 Binding % Inhib. of [^3 H] Pz @ 10 μM
T1 construct: The cortex of rat brains obtained from male Sprague-Dawley rats; from tissue; host or cells: rat brain cortex homogenate (male Sprague-Dawley)
T1 sequence (P08482 1-460): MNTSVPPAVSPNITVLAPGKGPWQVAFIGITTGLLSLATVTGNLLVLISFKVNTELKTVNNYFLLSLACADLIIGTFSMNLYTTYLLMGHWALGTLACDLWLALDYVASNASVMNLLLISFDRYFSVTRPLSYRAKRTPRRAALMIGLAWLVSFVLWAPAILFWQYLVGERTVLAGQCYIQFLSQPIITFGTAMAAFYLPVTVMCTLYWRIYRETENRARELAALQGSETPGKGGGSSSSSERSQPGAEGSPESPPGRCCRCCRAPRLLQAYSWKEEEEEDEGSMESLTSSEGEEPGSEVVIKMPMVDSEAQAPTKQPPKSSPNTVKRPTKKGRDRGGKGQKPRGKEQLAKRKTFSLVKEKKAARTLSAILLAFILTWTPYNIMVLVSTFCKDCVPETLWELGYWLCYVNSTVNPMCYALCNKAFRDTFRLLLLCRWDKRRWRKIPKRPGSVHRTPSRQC
Experimental: The cortex of rat brains obtained from male Sprague-Dawley rats (300 g) are homogenized using a hand-held teflon-coated pestle in 20 volumes of 0.32M sucrose. After centrifugation (747×g for 10 min at 4° C.), the resultant supernatant is decanted and recentrifuged (18677×g for 20 min at 4° C.). The resultant pellet is resuspended in the original volume of 0.32M sucrose and frozen. After thawing, the suspension is diluted (1:1 v/v) with 10 mM Na2 HPO4 /KH2 PO4 buffer (pH=7.4). [^3 H]PZ (0.5 nM, 0.04 μCi) is then incubated in multiple tubes with a 100 μl sample of the tissue suspension and 10 μl of a test compound solution (10 μM in water or ethanol) or vehicle (for control) in a sufficient quantity of the above phosphate buffer to give a total volume of 1 ml. One half of the tubes also contain 2 μM atropine sulfate which binds non-specifically with muscarinic receptors and provides for correcting the data for binding with other muscarinic receptors which may be present. After 60 minutes of incubation as 25° C. in the dark, the binding is terminated by vacuum filtration onto Whatman GF/B filters (pre-soaded for 60 minutes in 0.1% (w/v) polyethylenimine to reduce non-specific binding). After three washes with the phosphate buffer (4° C., 3 ml/wash) the vacuum is allowed to continue for two minutes before the filter-trapped radioactivity is assayed by liquid scintillation spectroscopy. Specific [^3 H]PZ binding is defined as total binding minus binding in the presence of 2 μM atropine sulfate. Data are pesented in Table I below as the percent inhibition ([control-test]/control×100%) of [^3 H]PZ binding by the test or reference compound.

[2] = biological target: T2, M1 acetylcholine receptors (Homo sapiens, UniProt P11229); assay: cell-based; conditions: CHO, 1 h; read-out: PI Turnover % above baseline
T2 sequence (P11229 1-460): T1 sequence (P08482 1-460) with V5A, S254T, S309P, K320R, G337A, V413I

muscarinic M2 receptors [3] = biological target: muscarinic M2 receptors (Rattus norvegicus, UniProt P10980); assay: biochemical; type: binding
muscarinic M2 receptors (Rattus norvegicus, UniProt P10980), sequence (P10980 whole entry): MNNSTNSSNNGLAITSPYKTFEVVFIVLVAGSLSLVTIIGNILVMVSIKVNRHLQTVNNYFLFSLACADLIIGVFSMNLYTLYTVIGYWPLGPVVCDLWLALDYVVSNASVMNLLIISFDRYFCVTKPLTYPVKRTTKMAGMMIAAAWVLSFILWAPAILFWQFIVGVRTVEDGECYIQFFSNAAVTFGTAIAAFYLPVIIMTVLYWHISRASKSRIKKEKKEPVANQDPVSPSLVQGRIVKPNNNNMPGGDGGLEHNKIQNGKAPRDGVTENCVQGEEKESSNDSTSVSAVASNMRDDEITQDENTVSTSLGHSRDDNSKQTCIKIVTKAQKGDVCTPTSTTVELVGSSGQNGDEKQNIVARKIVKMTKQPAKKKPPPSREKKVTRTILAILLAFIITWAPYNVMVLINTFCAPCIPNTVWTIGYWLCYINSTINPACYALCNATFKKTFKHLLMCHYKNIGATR

muscarinic M2 receptors [4] = assay: biochemical; type: binding, rat; conditions: selectivity M1 versus M2
muscarinic M1 receptors [5] = biological target: T1, muscarinic M1 receptors; assay: Tritiated pirenzepine ([^3 H]PZ) binding inhibition, rat brain cortex (M1 binding)
[6] = in vivo; cited from earlier work
Alzheimer's Disease = conditions: cited from earlier work; for improvement in memory: patients with mild to moderate Alzheimer's Disease
[7] = quaternary ammonium compounds; cited from earlier work
m1 receptors = conditions: cited from earlier work

Human m1 receptors, sequence (P11229 whole entry): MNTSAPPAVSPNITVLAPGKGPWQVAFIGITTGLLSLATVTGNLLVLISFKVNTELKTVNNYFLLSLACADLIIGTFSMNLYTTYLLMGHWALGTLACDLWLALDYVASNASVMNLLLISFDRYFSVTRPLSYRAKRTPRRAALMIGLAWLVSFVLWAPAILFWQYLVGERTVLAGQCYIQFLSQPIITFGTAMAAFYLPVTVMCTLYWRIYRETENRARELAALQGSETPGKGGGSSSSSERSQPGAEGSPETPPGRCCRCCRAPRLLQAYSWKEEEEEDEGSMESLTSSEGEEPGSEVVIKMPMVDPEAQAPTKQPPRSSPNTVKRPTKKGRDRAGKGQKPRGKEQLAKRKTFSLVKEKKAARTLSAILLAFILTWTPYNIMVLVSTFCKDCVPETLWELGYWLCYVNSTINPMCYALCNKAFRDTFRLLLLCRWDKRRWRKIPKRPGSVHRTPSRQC

## FC(F)(F)c1nnc(NCCCCN2CC3CCC(CC3)C2)c2cc3ccccn3c12 [Example 1, N-[4-(3-Azabicyclo[3.2.2]non-3-yl)butyl]-4-(trifluoromethyl)pyridazino[4,5b]indolizine-1-amine]
Human m1 receptors
  Ki: 240 nM

## FC(F)(F)c1nnc(NCCCN2CC3CCC(CC3)C2)c2cc3ccccn3c12 [Example 2]
Human m1 receptors
  Ki: 140 nM

## CCN(CC)CCCNc1nnc(COC)c2c1cc1ccccn12 [Example 3, N,N-Diethyl-N'-[4-(methoxymethyl)pyridazino[4,5-b]indolizin-1-yl]-1.3-propanediamine]
Muscarinic M1 receptors [1]
  inhibition at 10 µM: 98.4%

## COCc1nnc(NCCCN2CC3CCC(CC3)C2)c2cc3ccccn3c12 [Example 4, N-[3-(3-Azabicyclo[3.2.2]non-3-yl)propyl]-4-(methoxymethyl)pyridazino[4.5-b]indolizin-1-amine]
Muscarinic M1 receptors [1]
  inhibition at 10 µM: 100%

## COCc1nnc(NCCCCN2CC3CCC(CC3)C2)c2cc3ccccn3c12 [Example 5, N-[4-(3-Azabicyclo[3.2.2]non-3-yl)butyl]-4-(methoxymethyl)pyridazino[4.5-b]indolizin-1-amine]
Muscarinic M1 receptors [1]
  inhibition at 10 µM: 100%

## c1ccc(COCc2nnc(NCCN3CCN(c4ncccn4)CC3)c3cc4ccccn4c23)cc1 [Example 6, 4-[(Phenylmethoxy)methyl]-N-[2-[4-(2-pyrimidinyl)-1-piperazinyl]ethyl]pyridazino[4,5-b]indolizin-1-amine]
Muscarinic M1 receptors [1]
  inhibition at 10 µM: 98.3%

## CCN(CC)CCCNCc1nnc(NCCCN(CC)CC)c2cc3ccccn3c12 [Example 7, N,N-Diethyl-N'-[4-[[[3-(diethylamino)propyl]amino]methyl]-pyridazino[4.5-b]indolizin-1-yl]-1,3-propanediamine]
Muscarinic M1 receptors [1]
  inhibition at 10 µM: 99.3%

## CCN(CC)CCCNc1nnc(C)c2c1cc1n2CCCC1 [Example 8, N,N-Diethyl-N'-[6,7,8,9-tetrahydro-4-(methyl)-pyridazino[4,5-b]indolizin-1-yl]-1.3-propanediamine]
Muscarinic M1 receptors [1]
  inhibition at 10 µM: 98%

## Cc1nnc(NCCN2CC3CCC(CC3)C2)c2cc3n(c12)CCCC3 [Example 9]
Human m1 receptors
  Ki: 80 nM

## Cc1nnc(NCCCN2CC3CCC(CC3)C2)c2cc3n(c12)CCCC3 [Example 10, N-[3-(3-Azabicyclo[3.2.2]non-3-yl)propyl]-6,7,8,9-tetrahydro-4-(methyl)pyridazino[4,5-b]indolizin-1-amine]
Human m1 receptors
  Ki: 9 nM

## Cc1nnc(NCCCCN2CC3CCC(CC3)C2)c2cc3n(c12)CCCC3 [Example 11, N-[4-(3-Azabicyclo[3.2.2]non-3-yl)butyl]-6,7,8,9-tetrahydro-4-methylpyridazino[4,5-b]indolizin-1-amine]
[2]
  Emax: 102%
Muscarinic M2 receptors [3]
  Ki: 13.4 nM
Muscarinic M2 receptors [4]
  M2/M1 Ki ratio: 10
Muscarinic M1 receptors [5]; 1 μM, rat cortex, [^3 H]PZ 0.5 nM, read-out: M1 Binding % Inhib. of [^3 H] Pz @ 1 μM
  inhibition at 1 µM: 101%
Muscarinic M1 receptors [5]; Table II, rat brain M1
  Ki: 1.34 nM

## FC(F)(F)c1nnc(NCCCCN2CC3CCC(CC3)C2)c2cc3n(c12)CCCC3 [Example 12, N-[4-(3-Azabicyclo[3.2.2]non-3-yl)butyl]-6,7,8,9-tetrahydro-4-(trifluoromethyl)-pyridazino[4,5-b]indolizin-1-amine]
Human m1 receptors
  Ki: 206 nM

## CCN(CC)CCCNc1nnc(COC)c2c1cc1n2CCCC1 [Example 13, N,N-Diethyl-N'-[6,7,8,9-tetrahydro-4-(methoxymethyl)-pyridazino[4,5-b]indolizin-1-yl]-1.3-propanediamine]
Muscarinic M1 receptors [1]
  inhibition at 10 µM: 109%

## COCc1nnc(NCCCCN2CC3CCC(CC3)C2)c2cc3n(c12)CCCC3 [Example 14, N-[4-(3-Azabicyclo[3.2.2]non-3-yl)butyl]-6,7,8,9-tetrahydro-4-(methoxymethyl)-pyridazino[4,5-b]indolizin-1-amine]
Muscarinic M1 receptors [1]
  inhibition at 10 µM: 101%
[2]
  Emax: 73%

## c1ccc(COCc2nnc(NCCCCN3CCOCC3)c3cc4n(c23)CCCC4)cc1 [Example 15, 6,7,8,9,-Tetrahydro-N-[4-(4-morpholinyl)butyl]-4-[(phenylmethoxy)methyl]-pyradazino[4,5-b]indolizin-1-amine]
Muscarinic M1 receptors [1]
  inhibition at 10 µM: 100%

## COC(=O)C1=CCCN(C)C1 [arecoline]
[6]
  half-life: short half-life
Alzheimer's Disease
  improvement in memory: memory improvement in patients with mild to moderate Alzheimer's Disease

## C[N+](C)(C)CCOC(N)=O [carbachol]
[7]
  ability to cross the blood brain barrier: not able to cross the blood brain barrier

## C[C@@H]1O[C@H](C[N+](C)(C)C)C[C@H]1O [muscarine]
[7]
  ability to cross the blood brain barrier: not able to cross the blood brain barrier
m1 receptors
  activation of m1 receptors: able to fully activate m1 receptors

## Nc1c2c(nc3ccccc13)CCCC2 [tacrine]
Alzheimer's Disease; higher doses
  adverse side effects: adverse side effects especially at the higher doses
Alzheimer's Disease
  improvement in memory: improvement in memory can be shown in patients with mild to moderate Alzheimer's Disease
